Like-named read-outs stand apart in the source and are kept apart here.
Experiments:
Type in all cases: cell-based
[1] = target: T1, protein kinases (human kinome) (Homo sapiens, UniProt Q9NRH2); conditions: for logFC: SNRK (Q9NRH2)
T1 sequence (Q9NRH2 1-765): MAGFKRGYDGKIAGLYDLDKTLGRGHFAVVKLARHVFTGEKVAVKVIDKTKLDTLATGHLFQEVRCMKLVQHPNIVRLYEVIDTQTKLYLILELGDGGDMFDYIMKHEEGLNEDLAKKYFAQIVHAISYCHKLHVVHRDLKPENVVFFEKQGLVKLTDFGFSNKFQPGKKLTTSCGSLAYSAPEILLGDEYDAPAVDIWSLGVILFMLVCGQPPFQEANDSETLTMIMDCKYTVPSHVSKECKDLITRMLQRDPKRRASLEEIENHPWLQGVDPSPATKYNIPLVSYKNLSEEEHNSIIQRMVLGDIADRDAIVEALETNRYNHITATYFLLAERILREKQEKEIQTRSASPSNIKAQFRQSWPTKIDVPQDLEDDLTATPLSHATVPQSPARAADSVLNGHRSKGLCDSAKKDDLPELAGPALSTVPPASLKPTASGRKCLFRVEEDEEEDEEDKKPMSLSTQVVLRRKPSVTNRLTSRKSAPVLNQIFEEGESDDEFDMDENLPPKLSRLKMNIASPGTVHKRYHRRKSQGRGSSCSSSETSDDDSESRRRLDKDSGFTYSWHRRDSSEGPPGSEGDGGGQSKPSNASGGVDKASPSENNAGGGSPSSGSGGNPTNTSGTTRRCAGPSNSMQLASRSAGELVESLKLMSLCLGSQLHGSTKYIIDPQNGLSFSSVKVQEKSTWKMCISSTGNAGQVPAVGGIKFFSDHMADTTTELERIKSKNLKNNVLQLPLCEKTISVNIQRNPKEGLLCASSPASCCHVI

[2] = target: protein kinases (human kinome) (Homo sapiens, UniProt Q92918)
[3] = target: protein kinases (human kinome) (Homo sapiens, UniProt Q13164); conditions: MAPK7 (Q13164-1)
[4] = target: T2, protein kinases (human kinome) (Homo sapiens, UniProt Q9H8X2); conditions: IPPK (Q9H8X2)
T2 sequence (Q9H8X2 1-491): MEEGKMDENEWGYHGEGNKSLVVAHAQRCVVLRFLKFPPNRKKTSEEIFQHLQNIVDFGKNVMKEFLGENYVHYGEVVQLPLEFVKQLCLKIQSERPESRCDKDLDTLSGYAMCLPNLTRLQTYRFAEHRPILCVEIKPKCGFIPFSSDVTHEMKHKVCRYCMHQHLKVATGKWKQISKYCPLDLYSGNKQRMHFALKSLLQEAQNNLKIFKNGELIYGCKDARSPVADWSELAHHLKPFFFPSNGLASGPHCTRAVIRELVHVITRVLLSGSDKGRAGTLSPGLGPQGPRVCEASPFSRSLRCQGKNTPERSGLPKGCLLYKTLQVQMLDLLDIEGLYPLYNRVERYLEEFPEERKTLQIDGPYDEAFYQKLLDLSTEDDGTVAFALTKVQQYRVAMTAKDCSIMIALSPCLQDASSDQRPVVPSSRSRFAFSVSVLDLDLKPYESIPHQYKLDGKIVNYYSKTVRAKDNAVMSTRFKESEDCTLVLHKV

[5] = target: protein kinases (human kinome) (Homo sapiens, UniProt P49840); conditions: GSK3A P49840
protein kinases (human kinome) (Homo sapiens, UniProt P49840), sequence (P49840 whole entry): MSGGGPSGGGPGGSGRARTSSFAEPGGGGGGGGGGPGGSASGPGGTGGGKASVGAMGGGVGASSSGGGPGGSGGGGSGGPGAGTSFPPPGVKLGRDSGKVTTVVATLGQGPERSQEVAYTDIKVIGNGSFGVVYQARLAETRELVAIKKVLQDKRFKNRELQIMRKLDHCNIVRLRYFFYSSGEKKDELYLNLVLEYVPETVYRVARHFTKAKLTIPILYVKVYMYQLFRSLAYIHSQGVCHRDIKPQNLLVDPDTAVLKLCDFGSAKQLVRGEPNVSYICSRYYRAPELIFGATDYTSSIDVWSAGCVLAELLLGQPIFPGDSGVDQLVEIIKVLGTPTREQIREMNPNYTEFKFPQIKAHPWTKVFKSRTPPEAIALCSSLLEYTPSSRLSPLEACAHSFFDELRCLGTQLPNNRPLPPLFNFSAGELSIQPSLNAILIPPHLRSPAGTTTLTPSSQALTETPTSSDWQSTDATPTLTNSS

protein kinases (human kinome) (Homo sapiens, UniProt Q13164), sequence (Q13164 whole entry): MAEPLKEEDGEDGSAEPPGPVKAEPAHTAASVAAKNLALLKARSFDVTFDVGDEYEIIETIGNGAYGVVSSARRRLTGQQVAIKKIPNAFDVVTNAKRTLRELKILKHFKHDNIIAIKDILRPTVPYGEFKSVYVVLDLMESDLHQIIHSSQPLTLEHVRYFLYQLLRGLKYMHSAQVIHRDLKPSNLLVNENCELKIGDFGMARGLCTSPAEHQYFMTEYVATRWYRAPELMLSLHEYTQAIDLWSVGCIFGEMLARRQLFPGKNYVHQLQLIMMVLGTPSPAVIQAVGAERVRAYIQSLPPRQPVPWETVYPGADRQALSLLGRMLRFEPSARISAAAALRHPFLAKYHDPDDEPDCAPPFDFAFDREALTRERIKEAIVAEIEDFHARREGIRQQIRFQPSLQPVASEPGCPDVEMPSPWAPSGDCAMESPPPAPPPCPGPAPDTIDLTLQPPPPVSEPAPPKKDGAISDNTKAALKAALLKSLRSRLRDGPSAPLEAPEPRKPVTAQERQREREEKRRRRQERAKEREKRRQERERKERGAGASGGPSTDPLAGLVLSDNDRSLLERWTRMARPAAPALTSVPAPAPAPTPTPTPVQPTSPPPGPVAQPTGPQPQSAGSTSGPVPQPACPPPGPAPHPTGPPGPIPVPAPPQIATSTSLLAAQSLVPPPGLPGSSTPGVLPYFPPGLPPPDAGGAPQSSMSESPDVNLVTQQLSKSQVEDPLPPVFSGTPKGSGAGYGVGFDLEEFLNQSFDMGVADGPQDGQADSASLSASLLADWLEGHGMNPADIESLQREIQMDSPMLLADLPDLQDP
protein kinases (human kinome) (Homo sapiens, UniProt Q92918), sequence (Q92918 whole entry): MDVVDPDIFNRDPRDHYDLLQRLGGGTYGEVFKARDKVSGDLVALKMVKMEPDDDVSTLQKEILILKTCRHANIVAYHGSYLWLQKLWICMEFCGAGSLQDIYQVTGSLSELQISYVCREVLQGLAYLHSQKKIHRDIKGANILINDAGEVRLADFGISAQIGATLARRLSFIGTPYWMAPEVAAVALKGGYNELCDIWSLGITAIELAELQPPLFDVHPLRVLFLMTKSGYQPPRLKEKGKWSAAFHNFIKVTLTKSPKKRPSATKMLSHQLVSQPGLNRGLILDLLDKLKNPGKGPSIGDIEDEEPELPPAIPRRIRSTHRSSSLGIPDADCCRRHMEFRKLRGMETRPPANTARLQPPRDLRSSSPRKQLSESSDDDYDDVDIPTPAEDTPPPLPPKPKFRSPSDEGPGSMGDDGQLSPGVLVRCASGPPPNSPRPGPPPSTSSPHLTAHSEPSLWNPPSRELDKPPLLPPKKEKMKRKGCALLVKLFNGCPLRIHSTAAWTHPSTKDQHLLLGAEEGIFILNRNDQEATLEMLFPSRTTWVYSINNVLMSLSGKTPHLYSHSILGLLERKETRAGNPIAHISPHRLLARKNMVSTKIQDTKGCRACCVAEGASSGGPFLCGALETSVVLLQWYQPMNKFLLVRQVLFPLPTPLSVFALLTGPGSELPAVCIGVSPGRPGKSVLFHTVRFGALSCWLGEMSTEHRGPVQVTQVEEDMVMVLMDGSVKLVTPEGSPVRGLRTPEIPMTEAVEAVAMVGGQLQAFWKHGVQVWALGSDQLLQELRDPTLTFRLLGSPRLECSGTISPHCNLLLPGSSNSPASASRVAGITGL

O=C(COc1cccc2c1C(=O)N(C1CCC(=O)NC1=O)C2=O)NCCCCCCCN1CCc2cc(Nc3ncc(C4CC4)c(NCCCNC(=O)C4CCC4)n3)ccc2C1 (stereo not shown) [BSJ.04.178]
logFC ([1]; experiment wp134): −1.523 | logFC of SNRK (Q9NRH2) ([1]; experiment wp134): −1.523

Cc1ncsc1-c1ccc([C@H](C)NC(=O)[C@@H]2C[C@@H](O)CN2C(=O)[C@@H](NC(=O)CCCCCN2CCc3cc(Nc4ncc(C5CC5)c(NCCCNC(=O)C5CCC5)n4)ccc3C2)C(C)(C)C)cc1 [BSJ.05.026]
logFC of SNRK (Q9NRH2) ([1]; Experiment wp195): −1.856 | logFC ([1]; experiment wp195): −1.856

Cc1ccc(NC(=O)c2cccc(C(F)(F)F)c2)cc1N1Cc2cnc(Nc3ccc(N4CCN(Cc5cn(CCCCCOc6cccc7c6C(=O)N(C6CCC(=O)NC6=O)C7=O)nn5)CC4)nc3)nc2N(C)C1=O (stereo not shown) [DB0646, N-(3-(7-((6-(4-((1-(5-((2-(2,6-Dioxopiperidin-3-yl)-1,3-dioxoisoindolin-4-yl)oxy)pentyl)-1H-1,2,3-triazol-4-yl)methyl)piperazin-1-v)pyridin-3-yl)amino)-1-methyl-2-oxo-1,4-dihydropyrimido[4,5-d]pyrimidin-3(2H)-yl)-4-methylphenyl)-3-(trifluoromethyl)benzamide]
logFC MAP4K1 (Q92918) ([2]; experiment wp045): −0.4789 | logFC MAP4K1 (Q92918) ([2]; experiment wp152): −0.3638 | logFC MAP4K1 (Q92918) ([2]; experiment wp160, 4 hr): −0.3228 | logFC MAP4K1 (Q92918) ([2]; experiment wp160, 8 hr): −0.5785

Cc1ccc(NC(=O)c2cccc(C(F)(F)F)c2)cc1N1Cc2cnc(Nc3ccc(N4CCN(CCCOc5cccc6c5C(=O)N(C5CCC(=O)NC5=O)C6=O)CC4)nc3)nc2N(C)C1=O (stereo not shown) [DB0662]
logFC MAP4K1 (Q92918) ([2]; experiment wp168): −0.4067

Cc1ccc(NC(=O)c2cccc(C(F)(F)F)c2)cc1N1Cc2cnc(Nc3ccc(N4CCN(CCCCC(=O)N[C@H](C(=O)N5C[C@H](O)C[C@H]5C(=O)N[C@@H](C)c5ccc(-c6scnc6C)cc5)C(C)(C)C)CC4)nc3)nc2N(C)C1=O [DB1113]
logFC MAP4K1 (Q92918) ([2]; experiment wp168): −0.8463 | logFC ([3]; experiment wp168): −0.766 | logFC ([3]; experiment wp168, direction down): −0.766

Cc1ncsc1-c1ccc([C@H](C)NC(=O)[C@@H]2C[C@@H](O)CN2C(=O)[C@@H](NC(=O)CCOCCOCCN2CCN(c3ccc(Nc4ncc(Cl)c(Nc5ccccc5S(=O)(=O)C(C)C)n4)cc3)CC2)C(C)(C)C)cc1 [FMF.06.098.1]
logFC ([4]; experiment wp114): −0.5773 | logFC ([3]; experiment wp108): −0.4347 | logFC ([3]; experiment wp108, direction down): −0.4347 | logFC ([3]; experiment wp131): −0.4637 | logFC ([3]; experiment wp131, direction down): −0.4637

Cc1cnc(Nc2ccc(N3CCN(CCCCCCC(=O)N[C@H](C(=O)N4C[C@H](O)C[C@H]4C(=O)N[C@@H](C)c4ccc(-c5scnc5C)cc4)C(C)(C)C)CC3)cc2)nc1Nc1cccc(S(=O)(=O)NC(C)(C)C)c1 [JWG.123]
logFC of SNRK (Q9NRH2) ([1]; Experiment wp195): −1.197 | logFC ([1]; experiment wp195): −1.197

CNC(=O)c1ccccc1Nc1cc(Nc2ccc(N3CCN(CCOCCOCCNC(=O)CNc4cccc5c4C(=O)N(C4CCC(=O)NC4=O)C5=O)CC3)cc2OC)ncc1C(F)(F)F (stereo not shown) [MFH.5.103.1]
logFC ([3]; experiment wp076): −0.4142 | logFC ([3]; experiment wp076, direction down): −0.4142

O=C1CCC(N2C(=O)c3cccc(NCCCCCCCCN4CCC(NC(=O)c5[nH]ncc5NC(=O)c5c(Cl)cccc5Cl)CC4)c3C2=O)C(=O)N1 (stereo not shown) [MFH.5.126.1]
logFC ([5]; experiment wp076): −0.7531 | logFC GSK3A ([5]; experiment wp076): −0.7531

Cc1ncsc1-c1ccc([C@H](C)NC(=O)[C@@H]2C[C@@H](O)CN2C(=O)[C@@H](NC(=O)CCCCCN2CCN(c3ccc(Nc4ncc5scc(-c6cccc(NS(C)(=O)=O)c6)c5n4)cc3)CC2)C(C)(C)C)cc1 [RSS0680, (2S,4R)-1-((S)-3,3-Dimethyl-2-(6-(4-(4-((7-(3-(methylsulfonamido)phenyl)thieno[3,2-d]pyrimidin-2-yl)amino)phenyl)piperazin-1-yl)hexanamido)butanoyl)-4-hydroxy-N—((S)-1-(4-(4-methylthiazol-5yl)phenyl)ethyl)pyrrolidine-2-carboxamide]
logFC of SNRK (Q9NRH2) ([1]; Experiment wp117): −0.6321 | logFC ([1]; experiment wp080): −0.5567 | logFC ([1]; experiment wp117): −0.6321 | logFC of SNRK (Q9NRH2) ([1]; experiment wp080): −0.5567

CC(C)S(=O)(=O)c1ccccc1Nc1nc(Nc2ccc(N3CCN(CCOCCNC(=O)CNc4cccc5c4C(=O)N(C4CCC(=O)NC4=O)C5=O)CC3)cc2)ncc1Cl (stereo not shown) [SK.3.91]
logFC MAP4K1 (Q92918) ([2]; experiment wp016, 1 uM): −0.6677 | logFC MAP4K1 (Q92918) ([2]; experiment wp103): −0.5099 | logFC MAP4K1 (Q92918) ([2]; experiment wp107): −0.7036 | logFC MAP4K1 (Q92918) ([2]; experiment wp133, 4 hr): −0.5528 | logFC MAP4K1 (Q92918) ([2]; experiment wp160, 4 hr): −0.4817 | logFC ([4]; experiment wp103): −0.4729 | logFC ([4]; experiment wp107): −1.001 | logFC ([4]; experiment wp114): −0.7881 | logFC ([4]; experiment wp133, 4 hr): −0.4816 | logFC ([3]; experiment wp016, 1 uM): −0.3924 | logFC ([3]; experiment wp016, 1 uM, direction down): −0.3924

CC(C)S(=O)(=O)c1ccccc1Nc1nc(Nc2ccc(N3CCN(CCOCCOCCNC(=O)CNc4cccc5c4C(=O)N(C4CCC(=O)NC4=O)C5=O)CC3)cc2)ncc1Cl (stereo not shown) [TL12.186]
logFC MAP4K1 (Q92918) ([2]; experiment wp131): −0.4581 | logFC MAP4K1 (Q92918) ([2]; experiment wp137): −0.6136 | logFC ([4]; experiment wp131): −0.6311 | logFC ([3]; experiment wp137): −0.3334 | logFC ([3]; experiment wp137, direction down): −0.3334

NC(=O)c1c(F)cccc1Nc1nc(Nc2ccc(S(=O)(=O)NCCOCCOCCOCCOCCNc3cccc4c3C(=O)N(C3CCC(=O)NC3=O)C4=O)cc2)ncc1Br (stereo not shown) [TMX.02.138]
logFC ([5]; experiment wp146): −0.8225 | logFC GSK3A ([5]; experiment wp146): −0.8225

Cc1cc(Nc2ncc(Br)c(Nc3cccc(F)c3C(N)=O)n2)ccc1S(=O)(=O)NCCOCCOCCOCCOCCNc1cccc2c1C(=O)N(C1CCC(=O)NC1=O)C2=O (stereo not shown) [TMX.02.174]
logFC ([5]; experiment wp146): −0.7133 | logFC GSK3A ([5]; experiment wp146): −0.7133

Nc1ncc(-c2ccc(S(=O)(=O)N(CCCNC(=O)CCOCCOCCOCCOCCOCCNc3cccc4c3C(=O)N(C3CCC(=O)NC3=O)C4=O)C3CC3)cc2)cc1-c1ccc2c(c1)CCNC2=O (stereo not shown) [WH.10417.099]
logFC ([5]; experiment wp056): −0.5169 | logFC GSK3A ([5]; experiment wp056): −0.5169 | logFC ([5]; experiment wp103): −0.443 | logFC GSK3A ([5]; experiment wp103): −0.443 | logFC ([5]; experiment wp105): −0.4499 | logFC GSK3A ([5]; experiment wp105): −0.4499 | logFC ([5]; experiment wp107): −0.4697 | logFC GSK3A ([5]; experiment wp107): −0.4697
